ChEMBL document CHEMBL1146326, “13C bis-labeled pyrroles: a tool for the identification of the rat metabolism of 3-methyl pyrrole-2,4-dicarboxylic acid 2-propyl ester 4-(1,2,2-trimethyl-propyl) ester” (Bioorg Med Chem Lett, 2007)

Target: Metabotropic glutamate receptor 1 (Homo sapiens, UniProt Q13255)
Experiment: Inhibition of recombinant mGluR1a receptor expressed in CHO cells
Assay type: cell-based

Chain of Metabotropic glutamate receptor 1 (Q13255 whole entry): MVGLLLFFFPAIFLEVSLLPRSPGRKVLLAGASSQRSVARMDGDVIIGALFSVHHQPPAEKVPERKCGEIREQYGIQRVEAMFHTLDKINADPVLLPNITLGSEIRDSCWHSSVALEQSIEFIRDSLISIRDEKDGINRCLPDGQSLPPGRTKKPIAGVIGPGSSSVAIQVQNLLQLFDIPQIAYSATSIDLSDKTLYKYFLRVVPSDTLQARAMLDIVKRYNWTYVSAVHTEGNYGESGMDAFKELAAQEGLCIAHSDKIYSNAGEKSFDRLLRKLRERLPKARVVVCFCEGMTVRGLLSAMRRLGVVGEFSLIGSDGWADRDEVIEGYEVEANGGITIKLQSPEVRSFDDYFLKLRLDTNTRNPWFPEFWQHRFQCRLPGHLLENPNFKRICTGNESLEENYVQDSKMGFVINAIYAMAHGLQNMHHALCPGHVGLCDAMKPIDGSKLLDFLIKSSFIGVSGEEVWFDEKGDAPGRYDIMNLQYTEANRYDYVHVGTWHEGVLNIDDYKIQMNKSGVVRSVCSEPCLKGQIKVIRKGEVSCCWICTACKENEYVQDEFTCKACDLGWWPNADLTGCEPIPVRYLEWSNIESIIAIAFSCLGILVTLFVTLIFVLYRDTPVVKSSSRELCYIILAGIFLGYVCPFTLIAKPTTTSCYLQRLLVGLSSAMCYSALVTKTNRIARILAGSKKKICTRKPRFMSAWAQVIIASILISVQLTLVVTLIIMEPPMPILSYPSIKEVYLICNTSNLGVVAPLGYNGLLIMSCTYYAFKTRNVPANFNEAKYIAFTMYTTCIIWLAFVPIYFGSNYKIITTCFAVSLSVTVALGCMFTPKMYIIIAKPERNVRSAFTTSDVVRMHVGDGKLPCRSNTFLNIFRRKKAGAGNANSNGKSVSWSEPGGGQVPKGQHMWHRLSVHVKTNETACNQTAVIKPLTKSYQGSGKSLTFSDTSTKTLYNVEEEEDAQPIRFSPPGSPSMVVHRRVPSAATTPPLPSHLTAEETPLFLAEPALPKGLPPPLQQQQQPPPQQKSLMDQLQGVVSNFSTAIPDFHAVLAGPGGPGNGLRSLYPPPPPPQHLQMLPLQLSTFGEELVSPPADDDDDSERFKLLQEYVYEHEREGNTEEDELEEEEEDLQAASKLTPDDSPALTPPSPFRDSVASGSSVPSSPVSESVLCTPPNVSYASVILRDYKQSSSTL

| Compound | IC50 [nM] |
| --- | --- |
| COCCNC(=O)c1[nH]cc(C(=O)O[C@@H](C)C(C)(C)C)c1C | 31.6 |
| CC(=O)NCCCCNC(=O)c1[nH]c(C)c(C(=O)OC2CC3CCC2C3)c1C (centres undefined) | 1000 |
| CCCOC(=O)c1[nH]cc(C(=O)O[C@@H](C)C(C)(C)C)c1C | 3.98 |
| COCCNC(=O)c1[nH]cc(C(=O)NC2CC3CCC2C3)c1C (centres undefined) | > 10000 |
| COCCNC(=O)c1[nH]c(C)c(C(=O)OC2CC3CCC2C3)c1C (centres undefined) | 316 |

Other lines, results leading:

| IC50 [nM] | Compound |
| --- | --- |
| 200 | CC(=O)NCCCCNC(=O)c1[nH]cc(C(=O)OC2CC3CCC2C3)c1C (centres undefined) |
| 158 | COCCNC(=O)c1[nH]cc(C(=O)OC2CC3CCC2C3)c1C (centres undefined) |
| 20 | CCOC(=O)c1[nH]cc(C(=O)OC2CC3CCC2C3)c1C (centres undefined) |
| 100 | CCOC(=O)c1[nH]c(C)c(C(=O)OC2CC3CCC2C3)c1C (centres undefined) |
